Source: paper PMC7450057, “Enhancing intracellular accumulation and target engagement of PROTACs with reversible covalent chemistry” (Nature Communications, 2020)
Several values for one entry are separate records, joined by “and”; a condition that tells them apart may be missing. Identical values can stand only once.

Columns and labels:
[1] = target: truncated Cereblon protein (Homo sapiens, UniProt Q96SW2); experiment: CRBN binding assay (fluorescence quenching); settings: for Fluorescence Intensity: Supplementary Figure 11, replicates
Procedure, shortened: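 Kd derived from a quenching-curve fit (I=I0−If×Kd/P0+Kd+If) after buffer-blank subtraction. Compound used at 100 nM final with truncated Cereblon protein.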

[2] = Permeability by lipid-PAMPA method (Pharmaron); type: in vitro ADME; settings: PAMPA
BTK = BTK (Homo sapiens, UniProt Q06187); experiment: BTK degradation in MOLM-14 cells (western blot); type: cell-based; parameters: endogenous in cells; host or cells: MOLM-14; settings: for BTK%: Figure 2c, DMSO = 100
MOLM-14 cells = experiment: Quantification of intracellular drug concentration by LC-MS; type: in vitro ADME; settings: for Intracellular concentration: Concentration of compound, AVE / intracellular amount, AVE / intracellular amount / Intracellular concentration: Concentration of compound: 200 nM; for Intracellular concentration: Concentration of compound, AVE / intracellular amount, AVE: average of 3 replicates; for intracellular amount: initial amount 0.4000 nmol; for Intracellular concentration: Concentration of compound: sample volume 400 µL
Experimental: MOLM-14 cells were seeded at a density of 0.5 × 10^6 per mL in 2 mL medium. […] The samples were immediately centrifuged at 12,000 × g for 15 min at 4 °C, then removing the supernatant. In all, 400 μL of NP-40 lysis buffer was added to the cell pellet and mixed thoroughly. The mixtures were rocked for 1 h at 4 °C and centrifuged at 12,000 × g for 15 min at 4 °C. Then the supernatant was transferred to new EP tubes. In total, 20 µL supernatant was extracted with 180 µL of acetonitrile (containing internal standard: 250 nM of RNC-Ctrl) and centrifuged at the same conditions described above. Take 75 μL of supernatant for liquid chromatography-mass spectrometry analysis.
The mass spectrometer was operated in positive SIM ion mode (fragmentor 120 V; cycle time 0.6 s/cycle; Agilent Technologies 6130 Quadrupole LC/MS).

Jeko-1 = experiment: IC50 in MCL cell lines (Supplementary Table 2), Jeko-1; settings: for Cell Viability (%): Jeko-1 cells, replicate wells

truncated Cereblon protein, sequence (Q96SW2 318-426): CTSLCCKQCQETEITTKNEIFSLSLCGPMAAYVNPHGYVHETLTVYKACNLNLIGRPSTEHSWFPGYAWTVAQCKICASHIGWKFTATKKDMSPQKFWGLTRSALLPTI
BTK, sequence (Q06187 whole entry): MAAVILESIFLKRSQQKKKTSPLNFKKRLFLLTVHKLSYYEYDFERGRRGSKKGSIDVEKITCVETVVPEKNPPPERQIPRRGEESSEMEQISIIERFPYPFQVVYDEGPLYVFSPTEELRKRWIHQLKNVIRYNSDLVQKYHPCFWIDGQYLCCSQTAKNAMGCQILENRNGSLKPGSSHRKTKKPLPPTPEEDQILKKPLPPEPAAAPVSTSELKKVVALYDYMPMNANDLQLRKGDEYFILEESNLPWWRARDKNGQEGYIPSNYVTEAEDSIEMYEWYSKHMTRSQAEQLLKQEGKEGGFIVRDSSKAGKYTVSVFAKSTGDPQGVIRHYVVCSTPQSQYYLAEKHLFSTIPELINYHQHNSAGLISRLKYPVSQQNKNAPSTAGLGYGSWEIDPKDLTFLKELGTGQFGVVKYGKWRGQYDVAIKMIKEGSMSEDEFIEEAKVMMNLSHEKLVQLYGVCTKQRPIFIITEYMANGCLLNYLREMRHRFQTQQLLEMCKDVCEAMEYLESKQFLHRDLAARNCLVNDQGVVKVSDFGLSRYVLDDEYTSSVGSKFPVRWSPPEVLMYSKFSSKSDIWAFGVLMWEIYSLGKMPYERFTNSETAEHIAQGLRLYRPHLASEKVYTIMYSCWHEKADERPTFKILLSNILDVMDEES

Q: With `CN(CCCNC(=O)CNc1cccc2c1C(=O)N(C1CCC(=O)NC1=O)C2=O)C(C)(C)C=C(C#N)C(=O)N1CCC[C@@H](n2nc(-c3ccc(Oc4ccccc4)cc3)c3c(N)ncnc32)C1` (some centres unmarked) [RC-1] as the molecule, how does the “Fluorescence Intensity” value ([1]; CRBN 0 μM) read?
A: 4127.8 and 4128.8 and 3844.8

Q: And the “Fluorescence Intensity” value ([1]; CRBN 0.734375 μM)?
A: 3220.8 and 3187.8 and 3673.8

Q: What about the “Fluorescence Intensity” value ([1]; CRBN 1.46875 μM) of the same molecule?
A: 3204.8 and 3148.8 and 2908.8

Q: What about the “Fluorescence Intensity” value ([1]; CRBN 2.9375 μM) of the same molecule?
A: 2864.8 and 2662.8 and 2860.8

Q: And the “Fluorescence Intensity” value ([1]; CRBN 5.875 μM)?
A: 2528.8 and 2598.8 and 2686.8

Q: And the “Fluorescence Intensity” value ([1]; CRBN 11.75 μM)?
A: 1735.8 and 1776.8 and 2083.8

Q: What about the “Fluorescence Intensity” value ([1]; CRBN 23.5 μM) of the same molecule?
A: 1563.8 and 1722.8 and 1455.8

Q: What about the Kd ([1]; truncated Cereblon protein, fluorescence quenching, triplicates) of the same molecule?
A: 4200 nM

Q: And the recovery at 16 h, 10 μM ([2]; Recovery%)?
A: 25.1%

Q: What about the Papp at 16 h, 10 μM ([2]; pH 7.4) of the same molecule?
A: < 0.00692 ×10⁻⁶ cm/s

Q: What about the “Quantification anti-BTK / anti-β-actin (BTK level vs DMSO)” value (BTK; Figure 2b, 8 nM, duplicates) of the same molecule?
A: 63.6968 and 56.9893

Q: And the “Quantification anti-BTK / anti-β-actin (BTK level vs DMSO)” value (BTK; Figure 2b, 40 nM, duplicates)?
A: 41.0784 and 35.9122

Q: And the “Quantification anti-BTK / anti-β-actin (BTK level vs DMSO)” value (BTK; Figure 2b, 200 nM, duplicates)?
A: 29.8182 and 40.565

Q: What about the BTK% (BTK; 1.6 nM, duplicates) of the same molecule?
A: 93.8522% and 87.3729%

Q: And the BTK% (BTK; 8 nM, duplicates)?
A: 68.8086% and 49.2324%

Q: And the BTK% (BTK; 200 nM, duplicates)?
A: 29.085% and 28.987%

Q: And the BTK% (BTK; 1000 nM, duplicates)?
A: 33.1562% and 45.5509%

Q: What about the “Quantification anti-BTK / anti-β-actin (BTK level vs DMSO)” value (BTK; Figure 2d, DMSO = 100 (mean)) of the same molecule?
A: 23.0985

Q: What about the “Degradation at 200 nM (percentage of BTK degradation)” value (BTK; MOLM-14 cells, 200 nM, 24 h incubation) of the same molecule?
A: 81%

Q: And the DC50 (BTK; MOLM-14 cells, 24 h, western blot, read-out: DC50 (compound concentration inducing 50% of protein degradation))?
A: 6.6 nM

Q: What about the “Intracellular concentration: Concentration of compound, AVE” value (from here on “Intracellular concentration … AVE”) (MOLM-14 cells; 5 min) of the same molecule?
A: 0.1304 µM

Q: And the “intracellular amount, AVE” value (MOLM-14 cells; 5 min)?
A: 0.0522 nmol

Q: What about the intracellular amount (MOLM-14 cells; 5 min, single replicates) of the same molecule?
A: 0.0607 nmol and 0.0507 nmol and 0.0451 nmol

Q: And the “Intracellular concentration: Concentration of compound” value (MOLM-14 cells; 5 min, single replicates)?
A: 0.1517 µM and 0.1267 µM and 0.1128 µM

Q: And the “Intracellular concentration … AVE” value (MOLM-14 cells; 15 min)?
A: 0.1127 µM

Q: What about the “intracellular amount, AVE” value (MOLM-14 cells; 15 min) of the same molecule?
A: 0.0451 nmol

Q: And the intracellular amount (MOLM-14 cells; 15 min, single replicates)?
A: 0.0487 nmol and 0.0414 nmol and 0.0451 nmol

Q: And the “Intracellular concentration: Concentration of compound” value (MOLM-14 cells; 15 min, single replicates)?
A: 0.1218 µM and 0.1035 µM and 0.1128 µM

Q: What about the “Intracellular concentration … AVE” value (MOLM-14 cells; 30 min) of the same molecule?
A: 0.1159 µM

Q: And the “intracellular amount, AVE” value (MOLM-14 cells; 30 min)?
A: 0.0464 nmol

Q: What about the intracellular amount (MOLM-14 cells; 30 min, single replicates) of the same molecule?
A: 0.0474 nmol and 0.0471 nmol and 0.0447 nmol

Q: What about the “Intracellular concentration: Concentration of compound” value (MOLM-14 cells; 30 min, single replicates) of the same molecule?
A: 0.1184 µM and 0.1177 µM and 0.1117 µM

Q: What about the “Intracellular concentration … AVE” value (MOLM-14 cells; 60 min) of the same molecule?
A: 0.1117 µM

Q: And the “intracellular amount, AVE” value (MOLM-14 cells; 60 min)?
A: 0.0447 nmol

Q: What about the intracellular amount (MOLM-14 cells; 60 min, single replicates) of the same molecule?
A: 0.0471 nmol and 0.0390 nmol and 0.0480 nmol

Q: And the “Intracellular concentration: Concentration of compound” value (MOLM-14 cells; 60 min, single replicates)?
A: 0.1177 µM and 0.0975 µM and 0.1199 µM

Q: What about the “Intracellular concentration … AVE” value (MOLM-14 cells; 90 min) of the same molecule?
A: 0.1080 µM

Q: And the “intracellular amount, AVE” value (MOLM-14 cells; 90 min)?
A: 0.0432 nmol

Q: And the intracellular amount (MOLM-14 cells; 90 min, single replicates)?
A: 0.0436 nmol and 0.0454 nmol and 0.0405 nmol

Q: What about the “Intracellular concentration: Concentration of compound” value (MOLM-14 cells; 90 min, single replicates) of the same molecule?
A: 0.1091 µM and 0.1136 µM and 0.1013 µM

Q: And the “Intracellular concentration … AVE” value (MOLM-14 cells; 120 min)?
A: 0.1194 µM

Q: What about the “intracellular amount, AVE” value (MOLM-14 cells; 120 min) of the same molecule?
A: 0.0478 nmol

Q: What about the intracellular amount (MOLM-14 cells; 120 min, single replicates) of the same molecule?
A: 0.0460 nmol and 0.0513 nmol

Q: And the “Intracellular concentration: Concentration of compound” value (MOLM-14 cells; 120 min, single replicates)?
A: 0.1151 µM and 0.1282 µM

Q: And the “Intracellular concentration … AVE” value (MOLM-14 cells; 240 min)?
A: 0.1060 µM

Q: What about the “intracellular amount, AVE” value (MOLM-14 cells; 240 min) of the same molecule?
A: 0.0424 nmol

Q: And the intracellular amount (MOLM-14 cells; 240 min, single replicates)?
A: 0.0426 nmol and 0.0421 nmol and 0.0424 nmol

Q: And the “Intracellular concentration: Concentration of compound” value (MOLM-14 cells; 240 min, single replicates)?
A: 0.1065 µM and 0.1054 µM and 0.1061 µM

Q: And the Cellular concentration (MOLM-14 cells; 5 min, Mean)?
A: 0.0522 nmol/million cells

Q: And the Cellular concentration (MOLM-14 cells; 5 min, single replicates, MOLM-14, 200 nM)?
A: 0.0607 nmol/million cells and 0.0507 nmol/million cells and 0.0451 nmol/million cells

Q: What about the Cellular concentration (MOLM-14 cells; 15 min, Mean) of the same molecule?
A: 0.0451 nmol/million cells

Q: What about the Cellular concentration (MOLM-14 cells; 15 min, single replicates, MOLM-14, 200 nM) of the same molecule?
A: 0.0487 nmol/million cells and 0.0414 nmol/million cells and 0.0451 nmol/million cells

Q: What about the Cellular concentration (MOLM-14 cells; 30 min, Mean) of the same molecule?
A: 0.0464 nmol/million cells

Q: And the Cellular concentration (MOLM-14 cells; 30 min, single replicates, MOLM-14, 200 nM)?
A: 0.0474 nmol/million cells and 0.0471 nmol/million cells and 0.0447 nmol/million cells

Q: And the Cellular concentration (MOLM-14 cells; 60 min, Mean)?
A: 0.0447 nmol/million cells

Q: And the Cellular concentration (MOLM-14 cells; 60 min, single replicates, MOLM-14, 200 nM)?
A: 0.0390 nmol/million cells and 0.0480 nmol/million cells and 0.0471 nmol/million cells and 0.039 nmol/million cells and 0.048 nmol/million cells

Q: What about the Cellular concentration (MOLM-14 cells; 90 min, Mean) of the same molecule?
A: 0.0432 nmol/million cells

Q: What about the Cellular concentration (MOLM-14 cells; 90 min, single replicates, MOLM-14, 200 nM) of the same molecule?
A: 0.0436 nmol/million cells and 0.0454 nmol/million cells and 0.0405 nmol/million cells

Q: What about the Cellular concentration (MOLM-14 cells; 120 min, Mean) of the same molecule?
A: 0.0478 nmol/million cells

Q: And the Cellular concentration (MOLM-14 cells; 120 min, single replicates, MOLM-14, 200 nM)?
A: 0.0460 nmol/million cells and 0.046 nmol/million cells and 0.0513 nmol/million cells

Q: What about the Cellular concentration (MOLM-14 cells; 240 min, Mean) of the same molecule?
A: 0.0424 nmol/million cells

Q: What about the Cellular concentration (MOLM-14 cells; 240 min, single replicates, MOLM-14, 200 nM) of the same molecule?
A: 0.0426 nmol/million cells and 0.0421 nmol/million cells and 0.0424 nmol/million cells

Q: And the “intracellular concentration of RC-1 relative to RNC-1 and IRC-1” value (MOLM-14 cells; LC-MS of cell lysates)?
A: ~ 2 fold

Q: And the IC50 (Jeko-1; Jeko-1, triplicates)?
A: 200 nM

Q: And the “Cell Viability (%)” value (Jeko-1; 1.25E-06 M)?
A: 8.1% and 9.79% and 4.911%

Q: What about the “Cell Viability (%)” value (Jeko-1; 1.56E-07 M) of the same molecule?
A: 59.0193% and 84.765% and 42.1211%

Q: What about the “Cell Viability (%)” value (Jeko-1; 2.50E-06 M) of the same molecule?
A: 5.234% and 3.584% and 4.277%

Q: What about the “Cell Viability (%)” value (Jeko-1; 3.13E-07 M) of the same molecule?
A: 35.9177% and 48.9386% and 32.3116%

Q: And the “Cell Viability (%)” value (Jeko-1; 5.00E-06 M)?
A: 6.285% and 4.711% and 5.303%

Q: And the “Cell Viability (%)” value (Jeko-1; 6.25E-07 M)?
A: 26.3007% and 22.6601% and 16.326%

Q: What about the “Cell Viability (%)” value (Jeko-1; 7.81E-08 M) of the same molecule?
A: 58.1018% and 72.8615% and 48.2775%
